Our source for the Activity and inhibition values is ChEMBL document CHEMBL3596104, “Covalent modifier-type aggregation inhibitor of amyloid-β based on a cyclo-KLVFF motif” (Bioorg Med Chem Lett, 2015).

Test [1] deals with Amyloid-beta precursor protein (Homo sapiens) (UniProt P05067). In words: Binding affinity to amyloid beta (1 to 42) (unknown origin) assessed as intensity of peak for compound-amyloid beta (1 to 16) adduct at 200 uM incubated for 10 mins irradiated with UV light for 10 mins by MALDI-TOF-MS method.
Test [2] shares this target. In words: Binding affinity to amyloid beta (1 to 42) (unknown origin) assessed as fluorescence intensity at 50 uM by Thioflavin-T fluorescence assay (reference value: 100%).
The target is the same in test [3]. In words: Binding affinity to amyloid beta (1 to 42) (unknown origin) assessed as intensity of peak for compound-amyloid beta (17 to 28) adduct at 200 uM incubated for 20 to 120 mins irradiated with UV light for 10 mins by MALDI-TOF-MS method (reference value: 10%).
Test [4] has the same target. In words: Inhibition of fibril formation of amyloid beta (1 to 42) (unknown origin) at 50 uM incubated for 20 mins followed by irradiation with UV light for 10 mins and measured after 12 hrs by atomic force microscopy.
The target in test [5] is T1, Neuropeptide S (Homo sapiens) (UniProt P0C0P6).
T1 sequence (whole entry): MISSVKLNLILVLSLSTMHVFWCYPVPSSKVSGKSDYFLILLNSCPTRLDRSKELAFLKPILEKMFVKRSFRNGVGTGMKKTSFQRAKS
In words: Binding affinity to neuropeptide-S (unknown origin) at 200 uM incubated for 2 hrs irradiated with UV light for 10 mins by MALDI-TOF-MS method.

Test [6] has as its target Amyloid-beta precursor protein (Homo sapiens) (UniProt P05067). In words: Binding affinity to amyloid beta (1 to 42) (unknown origin) assessed as intensity of peak for compound-amyloid beta (1 to 16) adduct at 200 uM incubated for 20 mins irradiated with UV light for 10 mins by MALDI-TOF-MS method (reference value: 10%).
For test [7] the target is unchanged. The test is described as follows: Binding affinity to amyloid beta (1 to 42) (unknown origin) assessed as fluorescence intensity at 50 uM irradiated with UV light for 10 mins and measured up to 4 hrs by Thioflavin-T fluorescence assay (reference value: 100%).
Test [8] has the same target. In words: Binding affinity to amyloid beta (1 to 42) (unknown origin) assessed as intensity of peak for compound-amyloid beta (1 to 16) adduct at 200 uM incubated for 60 mins irradiated with UV light for 10 mins by MALDI-TOF-MS method (reference value: 10%).
For test [9] the target is unchanged. In words: Inhibition of amyloid beta (1 to 42) (unknown origin)-mediated cytotoxicity in rat PC12 cells treated with 20 mins compound pre-treated Abeta (1 to 42) followed by UV irradiation for 10 mins […] and measured after 48 hrs by WST8 assay. Format: cell-based. The note with it: PC-12.
The target is the same in test [10]. The test is described as follows: Binding affinity to amyloid beta (1 to 16) (unknown origin) assessed as intensity of peak for compound-amyloid beta (1 to 16) adduct at 200 uM irradiated with UV light for 10 mins by MALDI-TOF-MS method.
Test [11] has as its target T2, Angiotensinogen (Homo sapiens) (UniProt P01019).
T2 sequence (whole entry): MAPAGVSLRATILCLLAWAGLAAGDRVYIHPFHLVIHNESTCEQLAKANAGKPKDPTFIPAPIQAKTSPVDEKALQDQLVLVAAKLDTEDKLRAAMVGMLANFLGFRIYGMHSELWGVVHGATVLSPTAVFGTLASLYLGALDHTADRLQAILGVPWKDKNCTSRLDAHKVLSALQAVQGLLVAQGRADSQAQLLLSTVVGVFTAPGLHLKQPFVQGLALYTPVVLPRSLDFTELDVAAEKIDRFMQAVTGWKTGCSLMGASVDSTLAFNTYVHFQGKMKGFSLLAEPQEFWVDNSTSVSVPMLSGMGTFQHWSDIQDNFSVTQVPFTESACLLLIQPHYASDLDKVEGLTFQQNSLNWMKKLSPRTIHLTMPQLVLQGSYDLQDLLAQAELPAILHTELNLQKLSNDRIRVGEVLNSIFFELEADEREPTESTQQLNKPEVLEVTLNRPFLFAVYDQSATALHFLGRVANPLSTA
The test is described as follows: Binding affinity to angiotensin-4 (unknown origin) at 200 uM incubated for 2 hrs irradiated with UV light for 10 mins by MALDI-TOF-MS method.

The target in a further test is Insulin (Homo sapiens) (UniProt P01308). In words: Binding affinity to human insulin at 200 uM incubated for 2 hrs irradiated with UV light for 10 mins by MALDI-TOF-MS method.
In test [12] the target is Amyloid-beta precursor protein (Homo sapiens) (UniProt P05067). The test is described as follows: Binding affinity to amyloid beta (1 to 42) (unknown origin) assessed as intensity of peak for compound-amyloid beta (1 to 16) adduct at 200 uM incubated for 120 mins irradiated with UV light for 10 mins by MALDI-TOF-MS method (reference value: 10%).
For test [13] the target is unchanged. In words: Binding affinity to amyloid beta (1 to 42) (unknown origin) assessed as intensity of peak for compound-amyloid beta (29 to 42) adduct at 200 uM incubated for 20 to 120 mins irradiated with UV light for 10 mins by MALDI-TOF-MS method (reference value: 10%).
Test [14] has the same target. In words: Binding affinity to amyloid beta (1 to 42) (unknown origin) assessed as compound-amyloid beta (4 to 11) adduct formation at Tyr10 residue at 200 uM incubated for 2 hrs irradiated with UV light for 10 mins by LC-MS/MS method.
The target is the same in test [15]. The test is described as follows: Binding affinity to amyloid beta (1 to 42) (unknown origin) assessed as fluorescence intensity at 50 uM irradiated with UV light for 10 mins and measured after 60 mins by Thioflavin-T fluorescence assay (reference value: 100%).
Test [16] has the same target. In words: Inhibition of amyloid beta (1 to 42) (unknown origin)-mediated cytotoxicity in rat PC12 cells treated with 30 mins compound pre-treated Abeta (1 to 42) followed by UV irradiation for 10 mins […] and measured after 48 hrs by WST8 assay. The format is cell-based. The note with it: PC-12. (In general: Tetrazolium assays rely on reduction of a dye to a coloured formazan, in cell work by metabolically active cells.)

Calls of active or inactive are those of the source. No cut-off for these calls is given here. Starred links: 1 amine or outer side, 2 acyl side, 3 side chain; linkers in the order of their positions; H or OH if unused. Non-standard residues stand in square brackets, D forms with d. Residues, ends and D or L forms follow the SMILES beside them. Phe(4-CF3-diazirinyl) = N[C@@H](Cc1ccc(C2(C(F)(F)F)N=N2)cc1)C(=O)O; X1 = O=C([C@H](Cc1ccc(C(O)C(F)(F)F)cc1)N[*:1])[*:2]; Dip = N[C@H](C(=O)O)C(c1ccccc1)c1ccccc1

Sequence of Amyloid-beta precursor protein (Homo sapiens) (P05067 whole entry): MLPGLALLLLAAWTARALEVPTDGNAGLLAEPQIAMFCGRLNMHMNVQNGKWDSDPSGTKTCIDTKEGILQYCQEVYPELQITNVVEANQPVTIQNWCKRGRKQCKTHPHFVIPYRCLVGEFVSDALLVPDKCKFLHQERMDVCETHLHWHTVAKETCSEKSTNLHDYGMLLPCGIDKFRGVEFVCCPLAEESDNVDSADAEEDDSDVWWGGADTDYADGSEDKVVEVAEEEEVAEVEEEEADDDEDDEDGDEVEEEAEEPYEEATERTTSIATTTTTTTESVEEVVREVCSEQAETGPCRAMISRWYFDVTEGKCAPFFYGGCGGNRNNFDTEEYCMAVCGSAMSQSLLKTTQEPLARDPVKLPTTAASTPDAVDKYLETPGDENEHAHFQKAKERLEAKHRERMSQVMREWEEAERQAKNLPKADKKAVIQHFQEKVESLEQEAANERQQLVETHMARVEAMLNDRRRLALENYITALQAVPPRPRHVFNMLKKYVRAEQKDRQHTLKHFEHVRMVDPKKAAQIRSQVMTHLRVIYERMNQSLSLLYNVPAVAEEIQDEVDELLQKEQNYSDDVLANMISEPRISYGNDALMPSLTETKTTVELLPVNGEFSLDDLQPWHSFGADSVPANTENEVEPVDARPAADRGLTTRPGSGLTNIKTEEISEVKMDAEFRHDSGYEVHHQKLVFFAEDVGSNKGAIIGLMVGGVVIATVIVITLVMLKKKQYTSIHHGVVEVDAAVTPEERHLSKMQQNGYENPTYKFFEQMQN
Sequence of Insulin (Homo sapiens) (P01308 whole entry): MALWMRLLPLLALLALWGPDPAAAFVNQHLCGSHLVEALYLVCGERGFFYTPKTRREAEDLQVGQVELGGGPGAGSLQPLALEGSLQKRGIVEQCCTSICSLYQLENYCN

Turning to `CC(C)(C)OC(=O)N[C@@H](Cc1ccc(C2(C(F)(F)F)N=N2)cc1)C(=O)O`, in test [1], the outcome was inactive.

In the case of `CC(C)C[C@H]1NC(=O)[C@@H](CCCCN)NC(=O)[C@@H](Cc2ccccc2)NC(=O)[C@@H](C(c2ccccc2)c2ccccc2)NC(=O)[C@@H](C(C)C)NC1=O`, in test [2], the Activity came out at 68%.

`C[C@@H]1NC(=O)[C@H](CC(=O)O)NC(=O)[C@H](CCCNC(=N)N)NC(=O)[C@H](Cc2ccc(C3(C(F)(F)F)N=N3)cc2)NC(=O)[C@H](CCC(=O)O)NC1=O` (cyclo(AE[Phe(4-CF3-diazirinyl)]RD)): the outcome in test [1] was inactive.

In the case of `CC(C)C[C@@H]1NC(=O)[C@H](CCCCN)NC(=O)[C@H](Cc2ccc(C3(C(F)(F)F)N=N3)cc2)NC(=O)[C@H](C(c2ccccc2)c2ccccc2)NC(=O)[C@H](C(C)C)NC1=O` (cyclo([Dip][Phe(4-CF3-diazirinyl)]KLV)), the outcome (in test [3]; in test [5]; in [10]; in [11]; on Insulin (Homo sapiens); in test [13]) was inactive. For the same compound, the inhibition entry in test [4] is “Active”. Besides, the Activity stood at 10% in test [6]; 21% in [7]; 20% in test [8]; 59% in test [2]; 36% in test [12]. Further, the inhibition result in test [9] was “Dose-dependent effect”. Further, the result in test [1] and in [14] was Active.

Turning to `CC(C)C[C@@H]1NC(=O)[C@H](CCCCN)NC(=O)[C@H](Cc2ccc(C(O)C(F)(F)F)cc2)NC(=O)[C@H](C(c2ccccc2)c2ccccc2)NC(=O)[C@H](C(C)C)NC1=O` (stereo not given in full) (cyclo([Dip][X1]KLV)), the Activity in [15] was found to be 21%. In addition, in test [16], the inhibition result is “Dose-dependent effect”.
